According to US10759814B2, “Pharmaceutical compositions containing substituted polycyclic pyridone derivatives and prodrug thereof” (priority 2016, dated 2020):
Where two headings read alike, the source gives them in different places.

Assays:
[1] = Metabolism stability test; assay type: in vitro ADME, human; details: 2 μmol/L of test compound; 37° C., 30 minutes
Method: Test Example 5: Metabolism Stability Test
A reaction was performed (oxidative reaction) at 37° C. for 0 minute or 30 minutes in the presence of 1 mmol/L NADPH in 0.2 mL of a buffer (50 mmol/L Tris-HCl pH 7.4, 150 mmol/L potassium chloride, 10 mmol/L magnesium chloride) containing 0.5 mg protein/mL of human liver microsomes. After the reaction, 50 μL of the reaction solution was added to 100 μL of a methanol/acetonitrile=1/1 (v/v), mixed and centrifuged at 3000 rpm for 15 minutes. The compound used in the present invention in the supernatant was quantified by LC/MS/MS or Solid Phase Extraction (SPE)/MS, and a remaining amount of the compound used in the present invention after the reaction was calculated, letting a compound amount at 0 minute reaction time to be 100%. Hydrolysis reaction was performed in the absence of NADPH and glucuronidation reaction was in the presence of 5 mM UDP-glucuronic acid in place of NADPH, followed by similar operations.

red blood cells = assay: Light hemolysis test; assay type: cell-based, sheep; details: UV-irradiation 290 to 400 nm; 0.0008 to 0.1 w/v %
Method: Test Example 12: Light Hemolysis Test
The compound used in the present invention was dissolved at target concentrations and was mixed with a 2.5 v/v % suspension of red blood cells prepared from a defibrinated blood of sheep on a microplate at concentrations of 0.0008 to 0.1 w/v %. The mixtures were exposed to […] of UV-irradiation within a range of wavelength 290 to 400 nm, UVA and UVB using ultra violet fluorescent lamps, GL20SE and FL20S-BLB lamps manufactured by Sankyo Denki Co., Ltd. and Panasonic Corporation, respectively. After the completion of the irradiation, the mixtures were centrifuged, and a supernatant of the mixture was collected and was located on a microplate. The phototoxicity was assessed by measuring an absorbance at wavelength of 540 nm and 630 nm in the supernatant. The absorbance data at wavelength of 540 nm and 630 nm were used as indicators of biomembrane damage (photohemolysis %) and hyperoxidation of lipid membrane (methemoglobin formation), respectively. The criteria of phototoxicity was as follows; It was judged to be non-phototoxic (−) when the photohemolysis %<10 and the maximal change in the absorbance at 630 nm (ΔOD)<0.05 were observed. It was judged to be […] when the photohemolysis was more than 10% and the maximal change in the absorbance at 630 nm (ΔOD) was more than 0.05.

influenza virus = assay type: in vivo, human; details: 20 to <65 years old
[2] = assay type: in vivo, human; details: Compound II-6 single 40 or 80 mg; Oseltamivir 75 mg twice a day for 5 days
From the text: (4) Incidence of side effects
(4) Incidence of Side Effects
The number of side-effect episodes and the number of patients with side effect were counted for each administration group.

Row | SMILES | remaining rate after reaction with human liver microsomes (printed: % inhibition) [1] [%] | phototoxicity (red blood cells) | Amount of change in virus titer from baseline, mean (influenza virus; Day 2 (24 hours later)) | Proportion of patients having a positive influenza virus titer (influenza virus; Day 2 (24 hours later)) [%] | Amount of change in virus titer from baseline, mean (influenza virus; Day 3 (48 hours later)) | Proportion of patients having a positive influenza virus titer (influenza virus; Day 3 (48 hours later)) [%] | Amount of change in virus titer from baseline, mean (influenza virus; Day 4 (72 hours later)) | Proportion of patients having a positive influenza virus titer (influenza virus; Day 4 (72 hours later)) [%] | Amount of change in virus titer from baseline, mean (influenza virus; Day 5 (96 hours later)) | Proportion of patients having a positive influenza virus titer (influenza virus; Day 5 (96 hours later)) [%] | Amount of change in virus titer from baseline, mean (influenza virus; Day 6 (120 hours later)) | Proportion of patients having a positive influenza virus titer (influenza virus; Day 6 (120 hours later)) [%] | Amount of change in virus titer from baseline, mean (influenza virus; Day 9 (192 hours later)) | Proportion of patients having a positive influenza virus titer (influenza virus; Day 9 (192 hours later)) [%] | Incidence of adverse events the causal relationship of which cannot be denied (patients) [2] [%]
1 | O=C1c2c(O)c(=O)ccn2N([C@@H]2c3ccccc3SCc3c2ccc(F)c3F)[C@@H]2COCCN12 [III-2] | 90.1 | (−) (It was judged to be non-phototoxic (−) when the photohemolysis %<10 and the maximal change in the absorbance at 630 nm (ΔOD)<0.05 were observed) |  |  |  |  |  |  |  |  |  |  |  |  | 
2 | CCOC(=O)C1=C[C@@H](OC(CC)CC)[C@H](NC(C)=O)[C@@H](N)C1 [Oseltamivir, reference compound] |  |  | −2.51 log10 [TCID50/mL] | 91.0 | −4.20 log10 [TCID50/mL] | 57.3 | −4.63 log10 [TCID50/mL] | 27.6 | −4.98 log10 [TCID50/mL] | 20.9 | −4.85 log10 [TCID50/mL] | 9.0 | −5.22 log10 [TCID50/mL] | 3.2 | 8.4
